One may read the IC50 as the point on the concentration scale where inhibition reaches its midpoint.

The target of experiment [1] is T1, Recombinant human HDAC6 (Homo sapiens, UniProt Q9UBN7).
T1 construct: full length, MW=159 kDa; GST (N); host or cells: Sf9 insect cells (baculovirus)
T1 sequence (Q9UBN7 1-1215): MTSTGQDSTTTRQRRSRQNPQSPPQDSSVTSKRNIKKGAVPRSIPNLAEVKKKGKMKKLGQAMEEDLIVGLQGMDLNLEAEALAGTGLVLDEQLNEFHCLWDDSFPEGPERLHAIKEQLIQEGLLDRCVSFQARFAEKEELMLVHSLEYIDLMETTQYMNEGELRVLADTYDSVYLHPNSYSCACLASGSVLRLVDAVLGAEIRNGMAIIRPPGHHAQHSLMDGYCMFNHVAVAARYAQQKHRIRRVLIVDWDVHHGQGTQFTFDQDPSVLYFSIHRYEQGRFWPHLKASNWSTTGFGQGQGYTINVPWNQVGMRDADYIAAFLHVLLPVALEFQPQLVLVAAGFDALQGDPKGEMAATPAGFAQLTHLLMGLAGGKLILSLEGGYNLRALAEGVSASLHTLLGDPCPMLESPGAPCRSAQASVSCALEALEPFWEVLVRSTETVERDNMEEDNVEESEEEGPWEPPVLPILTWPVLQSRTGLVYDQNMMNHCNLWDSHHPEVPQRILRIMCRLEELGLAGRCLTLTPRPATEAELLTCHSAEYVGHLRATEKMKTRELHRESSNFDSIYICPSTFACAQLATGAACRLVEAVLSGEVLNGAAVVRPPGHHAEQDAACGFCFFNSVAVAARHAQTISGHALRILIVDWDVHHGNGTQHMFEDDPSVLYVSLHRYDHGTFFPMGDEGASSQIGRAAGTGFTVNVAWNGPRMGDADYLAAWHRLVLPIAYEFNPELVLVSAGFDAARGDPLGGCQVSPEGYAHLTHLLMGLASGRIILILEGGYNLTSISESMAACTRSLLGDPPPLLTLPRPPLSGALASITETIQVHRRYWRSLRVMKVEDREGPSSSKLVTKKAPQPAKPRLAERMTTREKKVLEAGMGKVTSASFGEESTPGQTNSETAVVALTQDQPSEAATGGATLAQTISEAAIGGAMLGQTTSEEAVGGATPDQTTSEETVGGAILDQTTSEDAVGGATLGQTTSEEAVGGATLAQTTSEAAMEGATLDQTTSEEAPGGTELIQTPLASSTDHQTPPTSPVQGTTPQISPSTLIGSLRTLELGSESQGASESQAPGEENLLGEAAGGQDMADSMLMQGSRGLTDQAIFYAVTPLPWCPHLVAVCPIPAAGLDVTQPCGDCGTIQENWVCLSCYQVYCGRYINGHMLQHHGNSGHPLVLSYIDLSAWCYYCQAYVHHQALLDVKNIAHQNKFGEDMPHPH
In words: HDAC6 biochemical assay, AMC-labeled peptide substrate. Particulars: HDAC6; read-out: HDAC Isoform IC50 (nM) 6. Put shortly: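 Two-step fluorogenic read-out: enzyme deacetylates 50 μM RHKK(Ac)AMC for 1 h at 30° C in pH 8.0 Tris buffer with BSA and 1% DMSO, then developer cleavage gives signal at Ex 360/Em 460. Enzyme: 0.3 ng/ul recombinant full-length human HDAC6, GST-tagged, Sf9-expressed.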

In experiment [2] the target is T2, Human HDAC4 (Homo sapiens, UniProt P56524).
T2 construct: amino acids 627-1085 with N-terminal GST tag; GST (N); host or cells: baculovirus expression system
In words: HDAC4 biochemical assay, class IIa-specific substrate. Particulars: read-out: HDAC Isoform IC50 (nM) 4. Put shortly: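 GST-tagged human HDAC4 (aa 627-1085, baculovirus) at 0.004 ng/ul was incubated 30 min at room temperature with 50 μM class IIa-specific substrate BOC-Lys(trifluoroacetyl)-AMC in Tris-HCl pH 8.0 buffer with BSA, 1% DMSO. Developer then released AMC, read at 360/460 nm.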

In experiment [3] the target is T3, Human HDAC9 (Homo sapiens, UniProt Q9UKV0).
T3 construct: amino acids 604-1066 with C-terminal His tag; His (C); host or cells: baculovirus expression system
In words: HDAC9 biochemical assay, class IIa-specific substrate. Particulars: read-out: HDAC Isoform IC50 (nM) 9. Put shortly: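 HDAC9 residues 604-1066 (C-terminal His tag, baculovirus-expressed) at 0.06 ng/ul with 50 μM class IIa substrate Boc-Lys(trifluoroacetyl)-AMC in Tris-HCl pH 8.0 buffer with BSA and 1% DMSO. 30 min at room temperature, then developer added; fluorescence read at 360/460 nm Ex/Em.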

The target in experiment [4] is T4, Human HDAC7 (Homo sapiens, UniProt Q8WUI4).
T4 construct: (a.a. 518-end) with N-terminal GST tag; GST (N); host or cells: baculovirus expression system
T4 sequence (Q8WUI4 518-952 limits assumed): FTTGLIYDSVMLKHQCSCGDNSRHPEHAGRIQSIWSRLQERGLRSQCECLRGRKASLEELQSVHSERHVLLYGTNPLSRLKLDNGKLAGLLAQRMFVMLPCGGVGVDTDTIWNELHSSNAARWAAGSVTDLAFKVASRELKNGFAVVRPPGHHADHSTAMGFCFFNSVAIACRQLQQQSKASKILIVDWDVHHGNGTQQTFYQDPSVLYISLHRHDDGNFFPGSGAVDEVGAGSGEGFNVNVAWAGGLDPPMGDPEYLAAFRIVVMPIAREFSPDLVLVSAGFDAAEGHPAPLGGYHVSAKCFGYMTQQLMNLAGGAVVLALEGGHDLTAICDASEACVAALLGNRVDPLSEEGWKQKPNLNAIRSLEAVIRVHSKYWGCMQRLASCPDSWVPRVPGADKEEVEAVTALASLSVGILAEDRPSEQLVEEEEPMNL
In words: HDAC7 biochemical assay, class IIa-specific substrate. The conditions noted are these: read-out: HDAC Isoform IC50 (nM) 7. Put shortly: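 GST-tagged HDAC7 (a.a. 518-end, baculovirus-expressed) at 0.001 ng/ul with 50 μM Boc-Lys(trifluoroacetyl)-AMC substrate, 30 min at room temperature in pH 8.0 Tris buffer with BSA, 1% DMSO final. Developer then releases AMC; fluorescence read at 360/460 nm.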

Experiment [5] addresses T5, Human HDAC1 (Homo sapiens, UniProt Q13547).
T5 construct: full length with C-terminal His-tag and C-terminal FLAG-tag; His (C); FLAG (C); host or cells: baculovirus expression system
In words: HDAC1 biochemical assay, AMC-labeled peptide substrate. Particulars: read-out: HDAC Isoform IC50 (nM) 1. Put shortly: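 Baculovirus-expressed full-length human HDAC1 with His and FLAG tags, 0.3 ng/ul, incubated 1 h at 30° C with compound and 50 μM RHKK(Ac)AMC in Tris pH 8.0 buffer with BSA and 1% DMSO. Developer then releases AMC from deacetylated substrate; fluorescence read at 360/460 nm.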

Experiment [6] deals with T6, Human HDAC5 (Homo sapiens, UniProt Q9UQL6).
T6 construct: full length with C-terminal His tag, MW=51.1 kDa; His (C); host or cells: baculovirus expression system
In words: HDAC5 biochemical assay, class IIa-specific substrate. Particulars: read-out: HDAC Isoform IC50 (nM) 5. Put shortly:
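Full-length C-terminal His-tagged HDAC5 from baculovirus (0.05 ng/ul) incubated 30 min at room temperature with 50 μM Boc-Lys(trifluoroacetyl)-AMC and compound, Tris pH 8.0 buffer with BSA, 1% DMSO. Developer then releases AMC; fluorescence 360/460 nm.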

T6 sequence (Q9UQL6 656-1122 limits assumed): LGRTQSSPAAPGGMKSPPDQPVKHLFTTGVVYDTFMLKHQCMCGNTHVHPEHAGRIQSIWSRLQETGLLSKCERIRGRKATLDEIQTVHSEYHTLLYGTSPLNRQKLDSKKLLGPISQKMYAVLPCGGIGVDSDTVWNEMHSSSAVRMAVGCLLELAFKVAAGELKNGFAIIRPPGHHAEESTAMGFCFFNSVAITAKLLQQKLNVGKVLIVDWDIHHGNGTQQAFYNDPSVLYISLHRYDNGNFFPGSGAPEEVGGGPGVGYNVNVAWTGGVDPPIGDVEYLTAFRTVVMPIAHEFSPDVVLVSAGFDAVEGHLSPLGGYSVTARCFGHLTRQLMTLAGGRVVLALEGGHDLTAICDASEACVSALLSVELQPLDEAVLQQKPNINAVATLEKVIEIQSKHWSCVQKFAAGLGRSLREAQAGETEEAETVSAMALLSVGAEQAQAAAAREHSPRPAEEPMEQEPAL
T2 sequence (P56524 627-1084 limits assumed): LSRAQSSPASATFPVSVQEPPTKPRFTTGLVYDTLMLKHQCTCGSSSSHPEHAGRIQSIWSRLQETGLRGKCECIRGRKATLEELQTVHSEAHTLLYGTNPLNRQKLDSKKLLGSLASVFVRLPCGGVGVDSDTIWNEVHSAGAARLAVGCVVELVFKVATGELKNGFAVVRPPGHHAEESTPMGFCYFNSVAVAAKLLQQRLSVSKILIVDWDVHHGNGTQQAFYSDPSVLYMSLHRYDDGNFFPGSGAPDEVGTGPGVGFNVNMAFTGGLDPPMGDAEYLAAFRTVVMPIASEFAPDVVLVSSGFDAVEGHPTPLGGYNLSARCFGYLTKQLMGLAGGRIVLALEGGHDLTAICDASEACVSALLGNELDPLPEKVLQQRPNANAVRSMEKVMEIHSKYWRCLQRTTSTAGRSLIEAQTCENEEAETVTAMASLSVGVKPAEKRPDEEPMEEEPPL
T5 sequence (Q13547 whole entry): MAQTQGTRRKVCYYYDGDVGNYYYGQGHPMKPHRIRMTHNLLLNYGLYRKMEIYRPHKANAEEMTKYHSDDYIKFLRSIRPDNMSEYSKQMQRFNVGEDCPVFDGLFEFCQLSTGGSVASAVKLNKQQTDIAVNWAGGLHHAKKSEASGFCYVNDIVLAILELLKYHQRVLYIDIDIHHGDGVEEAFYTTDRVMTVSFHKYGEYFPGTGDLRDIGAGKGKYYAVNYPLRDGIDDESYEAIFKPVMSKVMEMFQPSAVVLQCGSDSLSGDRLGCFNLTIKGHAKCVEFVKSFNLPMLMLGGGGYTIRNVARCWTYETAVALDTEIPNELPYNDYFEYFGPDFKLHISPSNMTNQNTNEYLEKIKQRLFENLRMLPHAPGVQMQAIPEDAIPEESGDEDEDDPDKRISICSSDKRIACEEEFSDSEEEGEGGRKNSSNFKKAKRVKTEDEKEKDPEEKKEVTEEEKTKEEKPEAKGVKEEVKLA
T3 sequence (Q9UKV0 604-1066 isoform Q9UKV0-5): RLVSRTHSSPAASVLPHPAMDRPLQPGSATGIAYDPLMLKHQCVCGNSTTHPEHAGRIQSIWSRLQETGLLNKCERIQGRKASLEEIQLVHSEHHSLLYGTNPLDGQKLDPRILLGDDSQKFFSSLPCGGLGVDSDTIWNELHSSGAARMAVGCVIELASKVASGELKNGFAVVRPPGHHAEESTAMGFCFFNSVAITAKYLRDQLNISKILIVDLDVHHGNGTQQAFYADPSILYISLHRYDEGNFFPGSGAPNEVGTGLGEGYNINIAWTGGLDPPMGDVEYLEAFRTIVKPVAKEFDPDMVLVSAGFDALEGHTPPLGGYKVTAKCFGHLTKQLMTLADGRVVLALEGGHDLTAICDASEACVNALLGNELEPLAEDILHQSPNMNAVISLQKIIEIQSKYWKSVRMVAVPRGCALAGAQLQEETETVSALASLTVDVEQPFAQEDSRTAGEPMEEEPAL

Regarding `Fc1cc(-c2noc(C(F)(F)F)n2)sc1CN(c1cnccn1)c1cnccn1` [Example EY, N-({3-Fluoro-5-[5-(trifluoromethyl)-1,2,4-oxadiazol-3-yl]thiophen-2-yl}methyl)-N-(pyrazin-2-yl)pyrazin-2-amine], the IC50 in experiment [1] is not above 500 nM; in experiment [2] it was not above 10000 nM; in experiment [3] it was not above 10000 nM; in experiment [4], not above 1000 nM; in experiment [5], more than 10000 nM; in experiment [6], not above 500 nM.

For `FC(F)(F)c1nc(-c2ccc(CN(c3cnccn3)c3cnsn3)s2)no1` [Example S, N-(1,2,5-Thiadiazol-3-yl)-N-({5-[5-(trifluoromethyl)-1,2,4-oxadiazol-3-yl]thiophen-2-yl}methyl)pyrazin-2-amine], the IC50 in experiment [1] is not above 10000 nM; in experiment [2], not above 1000 nM; in experiment [3], not above 10000 nM; in experiment [4], not above 10000 nM; in experiment [5], more than 10000 nM; in experiment [6] it was not above 10000 nM.

As for `FC(F)(F)c1nc(-c2ccc(CN(c3cnccn3)c3cscn3)s2)no1` [Example T, N-(1,3-Thiazol-4-yl)-N-({5-[5-(trifluoromethyl)-1,2,4-oxadiazol-3-yl]thiophen-2-yl}methyl)pyrazin-2-amine], the IC50 in experiment [1] is not above 10000 nM; in experiment [2], not above 1000 nM; in experiment [3], not above 10000 nM; in experiment [4], not above 10000 nM; in experiment [5], not above 10000 nM; in experiment [6], not above 1000 nM.

In the case of `FC(F)(F)c1nc(-c2ccc(CN(c3cnccn3)c3cccc(N4CCOCC4)n3)s2)no1` [Example W, N-[6-(Morpholin-4-yl)pyridin-2-yl]-N-({5-[5-(trifluoromethyl)-1,2,4-oxadiazol-3-yl]thiophen-2-yl}methyl)pyrazin-2-amine], the IC50 is not above 10000 nM in experiment [1]; not above 10000 nM in experiment [2]; not above 10000 nM in experiment [3]; not above 10000 nM in experiment [4]; more than 10000 nM in experiment [5]; not above 10000 nM in experiment [6].

As to `FC(F)(F)c1nc(-c2ccc(CN(c3cnccn3)c3ccc4ncccc4n3)s2)no1` [Example X, N-(Pyrazin-2-yl)-N-({5-[5-(trifluoromethyl)-1,2,4-oxadiazol-3-yl]thiophen-2-yl}methyl)-1,5-naphthyridin-2-amine], the IC50 in experiment [1] is not above 1000 nM; in experiment [2], not above 500 nM; in experiment [3], not above 1000 nM; in experiment [4], not above 1000 nM; in experiment [5], more than 10000 nM; in experiment [6] it was not above 1000 nM.

Take `FC(F)(F)c1nc(-c2ccc(CN(c3cnccn3)c3ccc4ccncc4n3)s2)no1` [Example Y, N-(Pyrazin-2-yl)-N-({5-[5-(trifluoromethyl)-1,2,4-oxadiazol-3-yl]thiophen-2-yl}methyl)-1,7-naphthyridin-2-amine]: the IC50 in experiment [1] was not above 1000 nM; in experiment [2], not above 500 nM; in experiment [3], not above 1000 nM; in experiment [4], not above 1000 nM; in experiment [5], more than 10000 nM; in experiment [6] it was not above 1000 nM.

Consider `FC(F)(F)c1nc(-c2ccc(CN(c3cnccn3)c3ccc4nccnc4n3)s2)no1` [Example Z, N-{Pyrido[2,3-b]pyrazin-6-yl}-N-({5-[5-(trifluoromethyl)-1,2,4-oxadiazol-3-yl]thiophen-2-yl}methyl)pyrazin-2-amine], for which the IC50 in experiment [1] was not above 1000 nM; in experiment [2], not above 1000 nM; in experiment [3] it was not above 10000 nM; in experiment [4] it was not above 1000 nM; in experiment [5], more than 10000 nM; in experiment [6], not above 1000 nM.

For the origin of these results see patent US20210038607A1, “OXADIAZOLYLTHIOPHENE DERIVATIVES USEFUL AS HISTONE DEACETYLASE INHIBITORS” (Karus Therapeutics Limited, priority 2018, published 2021).
